This note sets out measurements from ChEMBL document CHEMBL1144490, “Apoptosis induction and modulation of P-glycoprotein mediated multidrug resistance by new macrocyclic lathyrane-type diterpenoids” (Bioorg Med Chem, 2007).

The subject of series [1] is L5178Y. Kind of series: Induction of apoptosis in human MDR1 gene transfected mouse L5178 Y cells assessed as early apoptosis at 7 ug/mL after 40 mins. Format: functional.
In series [2] the test system is L5178Y. Kind of series: Induction of apoptosis in human MDR1 gene transfected mouse L5178 Y cells assessed as necrosis at 7 ug/mL after 40 mins. In kind it is functional.
Series [3] has as its system L5178Y. Kind of series: Induction of apoptosis in human MDR1 gene transfected mouse L5178 Y cells assessed as necrosis at 75 ug/mL after 40 mins. In kind it is functional.
Series [4] deals with L5178Y. Kind of series: Induction of apoptosis in human MDR1 gene transfected mouse L5178 Y cells assessed as early apoptosis at 75 ug/mL after 40 mins. In kind it is functional.
Series [5] relates to L5178Y. Kind of series: Induction of apoptosis in human MDR1 gene transfected mouse L5178 Y cells assessed as total apoptosis at 7 ug/mL after 40 mins. Format: functional.
For series [6], the system named is L5178Y. As to the kind of experiment: Induction of apoptosis in human MDR1 gene transfected mouse L5178 Y cells assessed as total apoptosis at 75 ug/mL after 40 mins. In kind it is functional.
Series [7] concerns the target T1, ATP-dependent translocase ABCB1 (Homo sapiens, UniProt P08183). As to the kind of experiment: Inhibition of P-gp mediated efflux-pump activity in human MDR1 gene transfected mouse L5178 Y cells at 4 ug/mL by rhodamine 123 accumulation test. Format: cell-based.
For series [8], the target named is T1, ATP-dependent translocase ABCB1. Kind of series: Inhibition of P-gp mediated efflux-pump activity in human MDR1 gene transfected mouse L5178 Y cells at 40 ug/mL by rhodamine 123 accumulation test. Format: cell-based.
The nature of series [9]: Antiproliferative activity against human MDR1 gene transfected mouse L5178 Y cells after 72 hrs. In kind it is functional. As to conditions: L5178Y, read-out: ID50 (the source's name).
For series [10], the system named is L5178Y. As to the kind of experiment: Induction of apoptosis in human MDR1 gene transfected mouse L5178 Y cells assessed as necrosis at 5 ug/mL after 40 mins. Format: functional.
Series [11] deals with L5178Y. Kind of series: Induction of apoptosis in human MDR1 gene transfected mouse L5178 Y cells assessed as necrosis at 50 ug/mL after 40 mins. Format: functional.
Series [12] has as its system L5178Y. Kind of series: Induction of apoptosis in human MDR1 gene transfected mouse L5178 Y cells assessed as total apoptosis at 5 ug/mL after 40 mins. Format: functional.
Series [13] deals with L5178Y. Kind of series: Induction of apoptosis in human MDR1 gene transfected mouse L5178 Y cells assessed as total apoptosis at 50 ug/mL after 40 mins. Format: functional.
The subject of series [14] is L5178Y. As to the kind of experiment: Induction of apoptosis in human MDR1 gene transfected mouse L5178 Y cells assessed as early apoptosis at 5 ug/mL after 40 mins. Format: functional.
Series [15] has as its system L5178Y. As to the kind of experiment: Induction of apoptosis in human MDR1 gene transfected mouse L5178 Y cells assessed as early apoptosis at 50 ug/mL after 40 mins. Format: functional.

In brackets after ≈: the same amount, converted by molar mass.

T1 sequence (P08183 whole entry): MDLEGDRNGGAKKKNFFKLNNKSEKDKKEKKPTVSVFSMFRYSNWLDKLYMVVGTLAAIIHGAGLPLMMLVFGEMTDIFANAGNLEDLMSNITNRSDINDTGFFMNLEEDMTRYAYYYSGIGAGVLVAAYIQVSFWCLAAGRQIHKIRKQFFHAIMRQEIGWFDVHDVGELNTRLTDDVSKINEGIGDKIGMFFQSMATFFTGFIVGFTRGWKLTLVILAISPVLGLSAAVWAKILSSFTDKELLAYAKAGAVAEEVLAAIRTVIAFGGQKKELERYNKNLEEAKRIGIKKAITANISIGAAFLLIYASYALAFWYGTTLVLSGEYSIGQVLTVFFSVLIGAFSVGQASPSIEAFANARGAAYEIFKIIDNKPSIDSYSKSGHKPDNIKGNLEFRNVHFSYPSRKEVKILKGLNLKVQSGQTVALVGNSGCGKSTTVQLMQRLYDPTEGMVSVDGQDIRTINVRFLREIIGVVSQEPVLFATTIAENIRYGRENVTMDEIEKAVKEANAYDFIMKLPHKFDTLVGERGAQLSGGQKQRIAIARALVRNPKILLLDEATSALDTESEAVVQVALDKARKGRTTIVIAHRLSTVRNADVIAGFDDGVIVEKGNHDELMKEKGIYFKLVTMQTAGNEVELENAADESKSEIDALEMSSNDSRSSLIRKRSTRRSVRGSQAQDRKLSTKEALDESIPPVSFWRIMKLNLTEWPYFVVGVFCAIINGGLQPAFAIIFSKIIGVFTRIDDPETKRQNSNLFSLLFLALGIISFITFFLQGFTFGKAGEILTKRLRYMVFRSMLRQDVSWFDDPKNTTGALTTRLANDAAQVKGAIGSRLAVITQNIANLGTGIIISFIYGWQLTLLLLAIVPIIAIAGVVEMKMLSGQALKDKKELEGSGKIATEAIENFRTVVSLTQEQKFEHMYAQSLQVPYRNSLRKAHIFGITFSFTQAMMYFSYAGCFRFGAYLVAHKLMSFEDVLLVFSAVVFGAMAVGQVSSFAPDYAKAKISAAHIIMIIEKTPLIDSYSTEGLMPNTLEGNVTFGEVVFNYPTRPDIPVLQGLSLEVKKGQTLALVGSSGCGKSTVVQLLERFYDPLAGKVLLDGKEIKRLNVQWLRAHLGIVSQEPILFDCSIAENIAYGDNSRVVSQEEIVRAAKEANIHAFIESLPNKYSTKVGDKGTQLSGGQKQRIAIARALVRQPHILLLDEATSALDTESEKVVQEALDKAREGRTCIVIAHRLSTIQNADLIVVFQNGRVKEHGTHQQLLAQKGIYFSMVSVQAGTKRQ

Regarding `C/C1=C\[C@@H]2[C@H](CC[C@@]3(C)O[C@@H]3[C@H]3[C@@H](O)[C@@H](C)C[C@]3(OC(=O)/C=C/c3ccccc3)C1=O)C2(C)C` [JOLKINOL B], the Activity is 6.91% in series [1]; 1.16% in series [2]; 0.41% in [3]; 4.06% in series [4]; 27% in [5]; 38.83% in series [6]. For the same compound, the results for the Fluorescence intensity in series [7] and in [8] were 449.2 and 649.3, respectively.
Take `C/C1=C\[C@@H]2[C@H](CC[C@@]3(C)O[C@@H]3C[C@@H](O)[C@@H](CO)C[C@H](OC(=O)/C=C/c3ccccc3)C1=O)C2(C)C` [LATILAGASCENES B]: the Activity in series [1] came out at 5.87%; in series [2], 0.79%; in series [3] it was 1.82%; in series [4], 1.38%; in series [5], 18.96%; in series [6], 96.31%. In series [9], the IC50 is 4.58 µg/mL (≈ 9.49 µM).
On to `C/C1=C\[C@@H]2[C@H](CC[C@@]3(C)O[C@@H]3C[C@@H](O)[C@@H](COC(=O)c3ccccc3)C[C@H](OC(=O)/C=C/c3ccccc3)C1=O)C2(C)C` [LATILAGASCENES D], for which the Activity in series [1] was determined as 12.7%; in series [2] it was 1.54%; in series [3], 6.83%; in series [4], 2.96%; in [5], 34.7%; in series [6] it was 67.97%. Besides, the Fluorescence intensity in series [7] came to 685.9; in series [8] it was 714.
In the case of `CC(=O)OC[C@H]1C[C@H](OC(=O)/C=C/c2ccccc2)C(=O)/C(C)=C/[C@@H]2[C@H](CC[C@@]3(C)O[C@@H]3C[C@H]1O)C2(C)C` [LATILAGASCENES A], the Activity came to 7.79% in series [1]; 0.85% in [2]; 2.16% in series [3]; 33.88% in series [4]; 22.7% in series [5]; 55.24% in series [6].
`CC(=O)OC[C@H]1C[C@H](OC(=O)/C=C/c2ccccc2)C(=O)/C(C)=C/[C@@H]2[C@H](CC[C@@]3(C)O[C@@H]3C[C@H]1OC(C)=O)C2(C)C` [LATILAGASCENES C]: the Activity in series [1] was found to be 7.8%; in series [2], 0.69%; in series [3], 3.93%; in series [4], 1.04%; in series [5] it was 21.9%; in series [6] it was 41.31%.
For `CC1(C)[C@@H]2/C=C(\CO)C(=O)[C@@H](OC(=O)/C=C/c3ccccc3)C[C@H](COC(=O)c3ccccc3)[C@H](O)C[C@H]3O[C@]3(C)CC[C@@H]21` [LATILAGASCENES E], the values for the Fluorescence intensity in [7] and in series [8] were 882.2 and 810.8, respectively.
Consider `COc1cccc2c1C(=O)c1c(O)c3c(c(O)c1C2=O)C[C@@](O)(C(=O)CO)C[C@@H]3O[C@H]1C[C@H](N)[C@H](O)[C@H](C)O1` [DOXORUBICIN], for which, in series [9], the IC50 was found to be 0.35 µg/mL (≈ 0.644 µM).
In the case of `c1ccc2c(c1)Nc1c(ccc3ccccc13)S2`, the Activity worked out at 16.3% in series [10]; 1.81% in [11]; 65.01% in series [12]; 98% in series [13]; 1.72% in [14]; 0.02% in series [15].
As to `C/C1=C\[C@@H]2[C@H](CC[C@@]3(C)O[C@@H]3C[C@@H](O)[C@@H](C)CC(OC(=O)c3ccccc3)C1=O)C2(C)C` (stereo partly specified) [LATILAGASCENES F], the Fluorescence intensity in series [7] was 212.6; in series [8], 1029.4.
